Measured values published in paper PMC6264423, “Phytochemical and Cytotoxic Investigations of Curcuma mangga Rhizomes” (Molecules, 2011).
Converted amounts (≈) assume the structure as drawn.

Assays:
[1] = tested on: non-cancer human fibroblast cell line (MRC-5)
Description: (§1) In-vitro neutral red cytotoxicity assay: All cancer cell lines were purchased from the American Type Culture Collection (ATCC, USA), medium like RPMI 1640, McCOY’S 5A, Eagle Minimum Essential Medium (EMEM) from Sigma-Aldrich, USA. The supplements or antibiotics such as foetal bovine serum, penicillin/streptomycin (100 μg/mL), amphotericin B (50 μg/mL), tripsin-EDTA (100X) were purchased from PAA Lab, Austria as well as sodium pyruvate (11 mg/mL) from Sigma-Aldrich, USA. The cells were cultured in a Shel Lab water-jacketed CO2 incubator with 25 cm^3 tissue culture flasks (Nunc, Denmark), which was observed routinely under inverted microscope (Leica DMI3000 B, Germany) for any contamination and seeded into 96-well flat bottom microtiter plate (Nunc, Denmark). The extract or pure compounds were dissolved in dimethyl sulfoxide (DMSO, Molecular Biology Grade, >99.9%) from Sigma-Aldrich, USA. The 96-well microtiter plate was agitated rapidly on a microtiter plate incubator shaker (LT Biomax 500) and absorbance of eluted dye measured at 540 nm using a ELISA microplate reader (EMax microplate reader of Molecular Devices, USA). Cell lines such as MCF-7, A549, Ca Ski and HT-29 were maintained in RPMI 1640 medium, HCT 116 in McCOY’S 5A Medium, KB and MRC-5 cells in Eagle Minimum Essential Medium (EMEM). All of these media were supplemented with 10% foetal bovine serum (FBS), penicillin/streptomycin, amphotericin B and only additional sodium pyruvate in EMEM. The cells were cultured in tissue culture flask in 5% CO2 incubator kept at 37 °C in a humidified atmosphere and observed routinely under inverted microscope from any contaminations. Each fresh medium was replaced every 2 or 3 days until cell confluence was achieved and the cells were detached by using tripsin-EDTA.

lung cell line (A549) = experiment: in-vitro neutral red cytotoxicity assay, A549; format: cell-based; details: Homo sapiens, mean ± SD of three replicates
Description: as §1

[2] = tested on: colon cell line (HCT 116); experiment: in-vitro neutral red cytotoxicity assay, HCT 116; format: cell-based; details: Homo sapiens, mean ± SD of three replicates
Description: as §1

colon cell line (HT-29) = experiment: in-vitro neutral red cytotoxicity assay, HT-29; format: cell-based; details: Homo sapiens, mean ± SD of three replicates
Description: as §1

[3] = tested on: hormone-dependent breast cell line (MCF-7); experiment: in-vitro neutral red cytotoxicity assay, MCF-7; format: cell-based; details: Homo sapiens, MCF7, mean ± SD of three replicates
Description: as §1

[4] = tested on: non-cancer human fibroblast cell line (MRC-5); experiment: in-vitro neutral red cytotoxicity assay, MRC-5; details: MRC5, read-out: IC50 values, MRC-5
Description: as §1

[5] = tested on: cervical cell line (Ca Ski); experiment: in-vitro neutral red cytotoxicity assay, Ca Ski; format: cell-based; details: Homo sapiens, mean ± SD of three replicates
Description: as §1

[6] = tested on: nasopharyngeal epidermoid cell line (KB); experiment: in-vitro neutral red cytotoxicity assay, KB; format: cell-based; details: Homo sapiens, mean ± SD of three replicates
Description: as §1

[7] = tested on: human cancer cell lines (MCF-7, KB, A549, Ca Ski, HCT 116, HT-29); experiment: in-vitro neutral red cytotoxicity assay, panel of six cancer cell lines; format: cell-based
Description: In-vitro neutral red cytotoxicity assay: All cancer cell lines were purchased from the American Type Culture Collection (ATCC, USA), medium like RPMI 1640, McCOY’S 5A, Eagle Minimum Essential Medium (EMEM) from Sigma-Aldrich, USA. The supplements or antibiotics such as foetal bovine serum, penicillin/streptomycin (100 μg/mL), amphotericin B (50 μg/mL), tripsin-EDTA (100X) were purchased from PAA Lab, Austria as well as sodium pyruvate (11 mg/mL) from Sigma-Aldrich, USA. The cells were cultured in a Shel Lab water-jacketed CO2 incubator with 25 cm^3 tissue culture flasks (Nunc, Denmark), which was observed routinely under inverted microscope (Leica DMI3000 B, Germany) for any contamination and seeded into 96-well flat bottom microtiter plate (Nunc, Denmark). The extract or pure compounds were dissolved in dimethyl sulfoxide (DMSO, Molecular Biology Grade, >99.9%) from Sigma-Aldrich, USA. The 96-well microtiter plate was agitated rapidly on a microtiter plate incubator shaker (LT Biomax 500) and absorbance of eluted dye measured at 540 nm using a ELISA microplate reader (EMax microplate reader of Molecular Devices, USA). Cell lines such as MCF-7, A549, Ca Ski and HT-29 were maintained in RPMI 1640 medium, HCT 116 in McCOY’S 5A Medium, KB and MRC-5 cells in Eagle Minimum Essential Medium (EMEM). […]

Ethyl acetate was tested, and the “effect on the normal human fibroblast cell line (in words)” value [1] was “caused no damage”.

In the case of `C=C1CC[C@H]2C(C)(C)CCC[C@]2(C)[C@H]1CC=C(C=O)CC(=O)O` (stereo in doubt) [Compound 3, zerumin A], the IC50 (lung cell line (A549)) is reported as 9.2 ± 0.62 µg/mL (≈ 28.9 µM), the IC50 [2] is reported as 9.3 ± 0.5 µg/mL (≈ 29.2 µM) and the IC50 (colon cell line (HT-29)) is reported as 14.9 ± 0.4 µg/mL (≈ 46.8 µM). For the same molecule, the IC50 [3] was 8.7 ± 0.29 µg/mL (≈ 27.3 µM), the IC50 [4] was 16.2 ± 0.25 µg/mL (≈ 50.9 µM) and the IC50 [5] was 14.2 ± 0.06 µg/mL (≈ 44.6 µM). The IC50 [6] was 11.7 ± 1.15 µg/mL (≈ 36.7 µM).

`C=C1CCC2C(C)(C)CCC[C@]2(C)C1C/C=C(/C=O)CC=O` (stereo partly shown) [Compound 1, (E)-labda-8(17),12-dien-15,16-dial] was tested, and the IC50 (lung cell line (A549)) was 19.9 ± 0.38 µg/mL (≈ 65.8 µM), the IC50 [2] was 7.6 ± 0.23 µg/mL (≈ 25.1 µM) and the IC50 (colon cell line (HT-29)) was 6.3 ± 0.26 µg/mL (≈ 20.8 µM). For the same molecule, the IC50 [3] was 4.3 ± 1.3 µg/mL (≈ 14.2 µM), the IC50 [4] was 8.9 ± 0.49 µg/mL (≈ 29.4 µM) and the IC50 [5] was 12.1 ± 0.35 µg/mL (≈ 40 µM). It also gave an IC50 [6] of 14.5 ± 0.87 µg/mL (≈ 47.9 µM).

In the case of `C=C1CCC2C(C)(C)CCC[C@]2(C)C1/C=C/C(C)=O` (stereo partly shown) [Compound 2, (E)-15,16-bisnorlabda-8(17),11-dien-13-one], the IC50 (lung cell line (A549)) is reported as greater than 100 µg/mL, the IC50 [2] is reported as greater than 100 µg/mL and the “cytotoxic activity on the investigated human cancer cell lines (in words)” value ([7]; all investigated human cancer cell lines) is reported as “no cytotoxic activity”. For the same molecule, the IC50 (colon cell line (HT-29)) was greater than 100 µg/mL, the IC50 [3] was greater than 100 µg/mL and the IC50 [4] was greater than 100 µg/mL. The IC50 [5] was greater than 100 µg/mL and the IC50 [6] was greater than 100 µg/mL.

In the case of `COc1cccc2c1C(=O)c1c(O)c3c(c(O)c1C2=O)C[C@@](O)(C(=O)CO)C[C@@H]3O[C@H]1C[C@H](N)[C@H](O)[C@H](C)O1` [Doxo *, Doxorubicin, reference compound], the IC50 (lung cell line (A549)) is reported as 0.58 ± 0.01 µg/mL (≈ 1.07 µM), the IC50 [2] is reported as 0.24 ± 0.04 µg/mL (≈ 0.442 µM) and the IC50 ([7]; Homo sapiens, span over the six cancer cell lines, read-out: IC50 values across all tested human cancer cell lines) is reported as 0.05 to 0.58 µg/mL (≈ 0.092 to 1.07 µM). It also gave an IC50 (colon cell line (HT-29)) of 0.33 ± 0.03 µg/mL (≈ 0.607 µM), an IC50 [3] of 0.05 ± 0.01 µg/mL (≈ 0.092 µM) and an IC50 [4] of 0.4 ± 0.03 µg/mL (≈ 0.736 µM). It also gave an IC50 [5] of 0.18 ± 0.06 µg/mL (≈ 0.331 µM) and an IC50 [6] of 0.27 ± 0.01 µg/mL (≈ 0.497 µM).
